Laboratory results reported in ChEMBL document CHEMBL4477199, “Design and synthesis of novel bicalutamide and enzalutamide derivatives as antiproliferative agents for the treatment of prostate cancer” (Eur J Med Chem, 2016).

Key:
VCaP [1] = assay: Potency index, ratio of bicalutamide IC50 to compound IC50 for human VCaP cells; format: functional
CWR22R [2] = assay: Antiproliferative activity against human 22Rv1 cells after 96 hrs by propidium iodide staining based fluorescence 2D monolayer assay; format: functional, cell-based; conditions: 22Rv1, 96 h
DU-145 [3] = assay: Potency index, ratio of bicalutamide IC50 to compound IC50 for human DU145 cells; format: functional
CWR22R [4] = assay: Potency index, ratio of bicalutamide IC50 to compound IC50 for human 22Rv1 cells; format: functional
[5] = 96 h
Description: Solubility in RPMI1640 culture medium at <30 uM incubated for 4 days by microscopic analysis

LNCaP [6] = assay: Potency index, ratio of bicalutamide IC50 to compound IC50 for human LNCAP cells; format: functional
DU-145 [7] = assay: Antiproliferative activity against human DU145 cells after 96 hrs by propidium iodide staining based fluorescence 2D monolayer assay; format: functional, cell-based; conditions: DU-145, 96 h
[8] = 33000 µM
Description: Solubility in 100% DMSO at 33 mM at -20 degC

LNCaP [9] = assay: Antiproliferative activity against human LNCAP cells after 96 hrs by propidium iodide staining based fluorescence 2D monolayer assay; format: functional, cell-based
VCaP [10] = assay: Antiproliferative activity against human VCaP cells after 96 hrs by propidium iodide staining based fluorescence 2D monolayer assay; format: functional, cell-based
[11] = target: T1, Androgen receptor (Rattus norvegicus) (UniProt P15207); assay: (§1) Antagonist activity at rat androgen receptor fused with DNA-binding domain of GAL4 expressed in AR-UAS-bla GripTite 293 cells assessed as inhibition of R1881-induced receptor activation preincubated for 30 mins followed by R1881 addition measured after 16 to 24 hrs by betalactamase reporter gene assay; format: cell-based
T1 sequence (whole entry): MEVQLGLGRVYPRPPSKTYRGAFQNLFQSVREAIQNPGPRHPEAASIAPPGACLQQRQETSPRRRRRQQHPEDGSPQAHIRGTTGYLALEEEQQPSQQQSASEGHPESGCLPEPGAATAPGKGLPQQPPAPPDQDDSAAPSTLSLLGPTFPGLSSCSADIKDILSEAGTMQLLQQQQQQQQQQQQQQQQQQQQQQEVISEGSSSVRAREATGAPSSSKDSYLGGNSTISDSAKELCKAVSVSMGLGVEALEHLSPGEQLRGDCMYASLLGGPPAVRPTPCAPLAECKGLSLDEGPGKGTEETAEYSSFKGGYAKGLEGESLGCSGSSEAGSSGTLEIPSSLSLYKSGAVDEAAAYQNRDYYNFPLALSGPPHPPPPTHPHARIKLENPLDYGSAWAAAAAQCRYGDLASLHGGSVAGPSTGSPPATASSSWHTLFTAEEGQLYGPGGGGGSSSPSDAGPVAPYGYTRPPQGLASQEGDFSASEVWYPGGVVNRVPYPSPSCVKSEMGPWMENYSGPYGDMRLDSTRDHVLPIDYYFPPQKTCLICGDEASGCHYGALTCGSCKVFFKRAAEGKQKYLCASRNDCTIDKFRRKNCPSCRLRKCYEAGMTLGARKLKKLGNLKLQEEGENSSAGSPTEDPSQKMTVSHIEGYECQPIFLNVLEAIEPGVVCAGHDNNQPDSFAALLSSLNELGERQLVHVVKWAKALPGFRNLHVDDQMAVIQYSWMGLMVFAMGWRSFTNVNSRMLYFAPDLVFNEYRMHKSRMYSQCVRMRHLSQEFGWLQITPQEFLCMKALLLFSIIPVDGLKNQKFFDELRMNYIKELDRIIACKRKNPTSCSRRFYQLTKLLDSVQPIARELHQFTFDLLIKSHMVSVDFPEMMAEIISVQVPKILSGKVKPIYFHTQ

Androgen receptor = target: T2, Androgen receptor (Rattus norvegicus, UniProt P15207); assay: as §1; format: cell-based
T2 sequence (P15207 whole entry): T1 sequence (whole entry)

LNCaP [12] = assay: Antiproliferative activity against human LNCAP cells assessed as relative inhibition after 96 hrs by propidium iodide staining based fluorescence 2D monolayer assay; format: functional, cell-based
DU-145 [13] = assay: Antiproliferative activity against human DU145 cells assessed as relative inhibition after 96 hrs by propidium iodide staining based fluorescence 2D monolayer assay; format: functional, cell-based; conditions: DU-145, 96 h
HepG2 [14] = assay: Cytotoxicity against human HepG2 cells assessed as reduction in cell viability at 100 uM after 72 hrs by MTT assay relative to control; format: functional
in vitro = conditions: human, liver microsomes
VCaP [15] = assay: Antiproliferative activity against human VCaP cells assessed as relative inhibition after 96 hrs by propidium iodide staining based fluorescence 2D monolayer assay; format: functional, cell-based
CWR22R [16] = assay: Antiproliferative activity against human 22Rv1 cells assessed as relative inhibition after 96 hrs by propidium iodide staining based fluorescence 2D monolayer assay; format: functional, cell-based; conditions: 22Rv1, 96 h
[17] = target: T1, Androgen receptor (Rattus norvegicus); assay: as §1, with “activation at 1 uM” for “activation”, “assay relative to control” for “assay”; format: cell-based
[18] = Half life in human liver microsomes at 3 uM preincubated with compound followed by NADPH addition by LC-MS/MS analysis; conditions: liver microsomes
HepG2 [19] = assay: Cytotoxicity against human HepG2 cells assessed as reduction in cell viability after 72 hrs by MTT assay; format: functional, cell-based; conditions: HepG2, 72 h; for minimal effective concentration: read-out: MEC
[20] = Apparent permeability from apical to basolateral side in human Caco2 cells at 10 uM incubated for 120 mins by LC-MS/MS analysis; conditions: Caco-2
[21] = Apparent permeability from basolateral to apical side in human Caco2 cells at 10 uM incubated for 120 mins by LC-MS/MS analysis; conditions: Caco-2
[22] = Efflux ratio of apparent permeability from basolateral to apical side over apical to basolateral side in human Caco2 cells at 10 uM incubated for 120 mins by LC-MS/MS analysis; conditions: Caco-2
[23] = Metabolic stability in human liver microsomes at 3 uM preincubated with compound followed by NADPH addition measured after 5 to 45 mins by LC-MS/MS analysis; format: ADME, Microsome

With `CC(O)(CS(=O)(=O)c1ccc(C(F)(F)F)cc1)C(=O)Nc1ccc([N+](=O)[O-])c(C(F)(F)F)c1` (stereo unspecified) the “Ratio IC50” value (VCaP [1]) was “<=2”, the IC50 (CWR22R [2]) was 18.7 µM and the “Ratio IC50” value (DU-145 [3]) was “<=2”. For the same compound, the “Ratio IC50” value (CWR22R [4]) was “<=2”, the solubility [5] was “Soluble” and the “Ratio IC50” value (LNCaP [6]) was “<=2”. The IC50 (DU-145 [7]) was 24.7 µM, the solubility [8] was “Soluble” and the IC50 (LNCaP [9]) was 17.9 µM. The IC50 (VCaP [10]) was 31.5 µM.

With `CC(O)(CS(=O)(=O)c1cccc(C(F)(F)F)c1)C(=O)Nc1ccc([N+](=O)[O-])c(C(F)(F)F)c1` (stereo unspecified) the “Ratio IC50” value (VCaP [1]) was “<=2”, the IC50 (CWR22R [2]) was 16.1 µM and the “Ratio IC50” value (DU-145 [3]) was “<=2”. For the same compound, the “Ratio IC50” value (CWR22R [4]) was “<=2”, the solubility [5] was “Soluble” and the “Ratio IC50” value (LNCaP [6]) was “<=2”. The IC50 (DU-145 [7]) was 31.6 µM, the solubility [8] was “Soluble” and the IC50 (LNCaP [9]) was 16.2 µM. The inhibition [11] was “Dose-dependent effect”, the IC50 (Androgen receptor) was 1.07 µM and the IC50 (VCaP [10]) was 30.8 µM.

Work on `C[C@](O)(CS(=O)(=O)c1ccc(F)cc1)C(=O)Nc1ccc(C#N)c(C(F)(F)F)c1` [(R)-BICALUTAMIDE] yielded an IC50 (LNCaP [12]) of 47 µM, an IC70 (LNCaP [12]) of 59.3 µM and an IC50 (DU-145 [13]) of 41.2 µM. It also gave an IC70 (DU-145 [13]) of 52.6 µM, an IC50 (CWR22R [2]) of 46.2 to 46.3 µM and an IC70 (CWR22R [2]) of 58.7 µM. It also gave a cell viability reduction (HepG2 [14]) of 77%, an IC50 (DU-145 [7]) of 45.4 µM and an IC70 (DU-145 [7]) of 56.6 µM. The microsomal CLint at 3 µM (in vitro) was 6.48 µL/min/mg, the IC50 (LNCaP [9]) was 45.2 µM and the IC70 (LNCaP [9]) was 57.7 µM. For the same compound, the IC50 (VCaP [15]) was 39.8 µM, the IC70 (VCaP [15]) was 52.1 µM and the IC50 (CWR22R [16]) was 44.6 µM. The IC70 (CWR22R [16]) was 57.1 µM, the IC50 (VCaP [10]) was 51.6 µM and the IC70 (VCaP [10]) was 83.4 µM.

For `C[C@](O)(CS(=O)(=O)c1ccc(OC(F)(F)F)cc1)C(=O)Nc1ccc(C#N)c(C(F)(F)F)c1`, the IC50 (CWR22R [2]) was 18.8 µM, the solubility [5] was “Soluble” and the inhibition [17] was 53 to 69%. For the same compound, the IC50 (DU-145 [7]) was 31.6 µM, the solubility [8] was “Soluble” and the IC50 (LNCaP [9]) was 18.9 µM. The inhibition [11] was “Dose-dependent effect”, the IC50 (Androgen receptor) was 0.777 µM and the IC50 (VCaP [10]) was 31.2 µM.

In the case of `CC(O)(COc1ccc(C#N)cc1C(F)(F)F)C(=O)Nc1ccc([N+](=O)[O-])c(C(F)(F)F)c1` (stereo unspecified), the IC50 (CWR22R [2]) is reported as 5.55 µM, the half-life at 3 µM [18] is reported as 8.9 h and the cell viability reduction (HepG2 [14]) is reported as 98%. It also gave an IC50 (DU-145 [7]) of 7.65 µM, an AC50 (HepG2 [19]) of 20.2 µM and a minimal effective concentration (HepG2 [19]) of 10.6 µM. For the same compound, the microsomal CLint at 3 µM (in vitro) was 2.59 µL/min/mg, the IC50 (LNCaP [9]) was 5.69 µM and the inhibition [11] was “Dose-dependent effect”. It also gave an IC50 (Androgen receptor) of 0.0722 µM and an IC50 (VCaP [10]) of 8.38 µM.

`C[C@](O)(COc1ccc(C#N)cc1)C(=O)Nc1ccc(C#N)c(C(F)(F)F)c1` [ENOBOSARM] showed an IC50 (CWR22R [2]) of 24.8 µM, a Papp A→B at 2 h, 10 µM [20] of 31.5 ×10⁻⁶ cm/s and a Papp B→A at 2 h, 10 µM [21] of 26.7 ×10⁻⁶ cm/s. It also gave an efflux ratio at 2 h, 10 µM [22] of 0.848, a cell viability reduction (HepG2 [14]) of 79% and an IC50 (DU-145 [7]) of 44.6 µM. The AC50 (HepG2 [19]) was 32.8 µM, the minimal effective concentration (HepG2 [19]) was 21.8 µM and the Stability [23] was “Stable”. The IC50 (Androgen receptor) was 0.0364 µM and the IC50 (VCaP [10]) was 24.5 µM.

With `CC(O)(CS(=O)(=O)c1ccc(C(F)(F)F)cc1)C(=O)Nc1ccc(C#N)c(C(F)(F)F)c1` (stereo unspecified) the “Ratio IC50” value (VCaP [1]) was 2, the IC50 (CWR22R [2]) was 21.5 µM and the “Ratio IC50” value (DU-145 [3]) was 2. For the same compound, the “Ratio IC50” value (CWR22R [4]) was 2, the solubility [5] was “Soluble” and the “Ratio IC50” value (LNCaP [6]) was 2. For the same compound, the IC50 (DU-145 [7]) was 32.8 µM, the solubility [8] was “Soluble” and the IC50 (LNCaP [9]) was 20.1 µM. It also gave an IC50 (VCaP [10]) of 29.1 µM.
